Like-named read-outs stand apart in the source and are kept apart here.
Experiments:
MT1 receptor = MT1 receptor (Homo sapiens, UniProt P48039); assay: FLIPR Ca2+ mobilization assay, MT1; assay type: cell-based; parameters: expressed in transfected cells; host or cells: COS-7 (monkey kidney fibroblast); details: for % Response of 2-IMT: MT1, relative to 2-IMT response
Protocol: (§1) 1. FLIPR Ca^2+ Mobilization Assay
(§2) This assay indicates the ability of the novel compounds to activate MT1 and MT2 receptors by measuring downstream events of the activated receptor, in this case intracellular calcium mobilization.
(§3) 1. Intracellular Ca^2+ Mobilization Assay Using Fluorometric Imaging Plate Reader (FLIPR®)
(§4) An intracellular calcium mobilization assay was performed to screen the isoquinolone compounds against the two melatonin receptor subtypes, MT1 and MT2 on the fluorometric imaging plate reader (FLIPR®). In order to facilitate the screening process in a high-throughput manner, chimeric G proteins with the ability to couple to a range of GPCR as well as activate intracellular Ca^2+ were employed. The melatonin receptor subtype (either MT1 or MT2) was co-expressed with the G-protein chimeras in COS-7 (monkey kidney fibroblast) cells. During the assay, cells were exposed to the novel isoquinolone compounds and the corresponding change in fluorescence was measured. Both single point and dose-dependant assays were performed for each isoquinolone compound and based on the latter a dose response curve was generated and the corresponding EC50 for each receptor subtype determined.
(§5) Specifically, COS-7 cells were seeded at a density of 20,000 cells/well into 96-well plates designed for FLIPR assays, using Opti-MEM with 10% FCS at a volume of 100 μl/well. Transfection was carried out using Lipofectamine 2000® reagent. In each well, 0.2 μg of the GPCR and G protein cDNA were diluted with 25 μl of Opti-MEM and 0.2 μl of Lipofectamine 2000® was diluted with another 25 μl of Opti-MEM. They were added to appropriate wells after the two components were mixed for 20 min.
(§6) After 48 hours of incubation post-transfection, 50 μl of the transfection medium was removed from each well followed by the labelling of transfected cells with 100 μl of 2 μM Fluo-4 in calcium containing HBSS (Hank's balanced salt solution) with 20 mM HEPES (N-[2-hydroxyethyl]piperazine—N′-[2-ethanesulfonic acid]; pH 7.5) and 2.5 mM probenecid (anion exchanger inhibitor, freshly prepared) for 1 hour at 37° C. 70 μl of 3× drugs (isoquinolinone compounds encompassing the invention) were prepared and aliquoted into the corresponding wells in the V-well drug plate. Changes in fluorescence were detected in the FLIPR 96 with an excitation wavelength of 488 nm. The background fluorescence was adjusted to the range of 8,000 to 12,000 units by altering the laser power and exposure time (typically 0.4 W and 0.4 sec, respectively) for the FLIPR setup. 50 μl of each agonist solution was added to the corresponding wells and the fluorescent emission (between 510 and 560 nm) was monitored for 3 min. Results were expressed as change in fluorescent intensity units (FIU). Concentration-response curves were generated by determining the maximal change in FIU of each data set. Numerical analysis of the statistics and EC50 (median effective concentration) values were performed on GraphPad Prism version 3.03.
(§7) Then the intracellular Ca^2+ mobilization assays using the Fluorometric Imaging Plate Reader (FLIPR®) were performed as described above.

MT2 receptor = molecular target: T1, MT2 receptor (Homo sapiens, UniProt P49286); assay: FLIPR Ca2+ mobilization assay, MT2; assay type: cell-based; parameters: expressed in transfected cells; host or cells: COS-7 (monkey kidney fibroblast); details: for Emax: read-out: % Response of 2-IMT; for agonist character / receptor subtype selectivity in words: FLIPR results, MT1 versus MT2; for % Response of 2-IMT: MT2, relative to 2-IMT response
T1 sequence (P49286 1-362): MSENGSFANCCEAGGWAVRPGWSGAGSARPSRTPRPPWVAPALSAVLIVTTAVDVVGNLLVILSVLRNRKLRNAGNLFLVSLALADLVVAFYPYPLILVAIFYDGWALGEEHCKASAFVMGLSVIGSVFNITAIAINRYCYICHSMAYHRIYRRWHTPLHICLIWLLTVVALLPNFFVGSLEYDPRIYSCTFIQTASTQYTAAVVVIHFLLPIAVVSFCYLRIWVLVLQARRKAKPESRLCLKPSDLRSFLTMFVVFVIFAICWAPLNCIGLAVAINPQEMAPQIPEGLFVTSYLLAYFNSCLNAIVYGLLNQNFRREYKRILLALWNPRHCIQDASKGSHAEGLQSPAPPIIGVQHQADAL
Protocol: as §1, §2, §3, §4, §5, §6, §7

[1] = Table 1, MT1 in COS-7 cells with chimeric G protein, log value, negative, NSR = no significant response, read-out: Log(EC50) ± SEM (converted)
[2] = Table 1, MT2 in COS-7 cells with chimeric G protein, log value, negative, NSR = no significant response
[3] = Table 1, MT2 in COS-7 cells with chimeric G protein, log value, negative, NSR = no significant response, read-out: Log(EC50) ± SEM (converted)
[4] = Table 1, MT1 in COS-7 cells with chimeric G protein, log value, negative, NSR = no significant response

MT1 receptor, sequence (P48039 whole entry): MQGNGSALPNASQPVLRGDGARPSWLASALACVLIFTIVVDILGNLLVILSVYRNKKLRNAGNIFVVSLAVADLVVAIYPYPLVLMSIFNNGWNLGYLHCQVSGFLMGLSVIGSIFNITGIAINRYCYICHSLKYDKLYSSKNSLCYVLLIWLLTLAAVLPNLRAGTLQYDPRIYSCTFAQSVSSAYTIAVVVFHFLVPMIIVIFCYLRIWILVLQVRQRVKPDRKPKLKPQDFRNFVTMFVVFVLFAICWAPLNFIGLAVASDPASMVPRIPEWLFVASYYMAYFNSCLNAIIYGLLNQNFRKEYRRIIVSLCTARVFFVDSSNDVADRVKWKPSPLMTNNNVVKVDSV

SMILES | % Response of 2-IMT (MT1 receptor; Table 1) [%] | Log(EC50) ± SEM (MT2 receptor; [2]) | EC50 (MT2 receptor; [3]) [nM] | Emax (MT2 receptor) [%] | Log(EC50) ± SEM (MT1 receptor; [4]) | other results
COc1cc2c(=O)n(C)ccc2cc1O [IS001, 6-Hydroxyl-7-methoxyl-2-methyl-1(2H)-isoquinolone] | 71.9 | NSR | – | – | – | EC50 (MT1 receptor; [1]): 1580 nM
COc1ccc2c(=O)n(C)ccc2c1OCc1ccccc1 [IS005] | 30.5 | – | – | 62.9 | – | activity / activation at MT1 compared to 2-IMT (MT1 receptor; running text b158, b160): 31%; EC50 (MT1 receptor; running text b158, read-out: EC50 MT1): 5.81 nM; activity / efficacy at MT2 compared to 2-IMT (MT2 receptor): 63%; agonist character / receptor subtype selectivity in words (MT2 receptor): partial agonist; EC50 (MT2 receptor; read-out: EC50 MT2): 48.5 nM
C=CCOc1c(OC)ccc2c(=O)n(C)ccc12 [IS007] | – | – | 3.47 | 49.1 | NSR | EC50 (MT2 receptor; read-out: EC50 MT2): 3.51 nM
COc1ccc2c(=O)n(C)ccc2c1OCCCc1ccccc1 [IS008] | – | – | 562 | 57.6 | NSR | agonist character / receptor subtype selectivity in words (MT2 receptor): activated MT2 only
COc1cc2ccn(C)c(=O)c2cc1OCCCc1ccccc1 [IS013] | 75.0 | −6.00 ± 0.01 | – | – | −5.22 ± 1.28 | % Response of 2-IMT (MT2 receptor; Table 1): 101.9%
COc1cc2ccn(C)c(=O)c2cc1OCCCCCl [IS098] | – | – | 6.17 | 44.7 | NSR | –
COc1cc2ccn(C)c(=O)c2cc1OCCCI [IS101, 7-(3-iodopropyloxyl)-6-methoxyl-2-methyl-1(2H)-isoquinolone] | – | – | 603 | 65.8 | NSR | –

Now from value to molecule, other results behind:

% Response of 2-IMT (MT1 receptor; Table 1) [%] | Log(EC50) ± SEM (MT2 receptor; [2]) | EC50 (MT2 receptor; [3]) [nM] | Emax (MT2 receptor) [%] | Log(EC50) ± SEM (MT1 receptor; [4]) | SMILES | other results
31.7 | – | 871 | 47 | – | COc1cc2ccn(C)c(=O)c2cc1O [IS002, 7-hydroxyl-6-methoxyl-2-methyl-1(2H)-isoquinolone] | EC50 (MT1 receptor; [1]): 1740 nM
– | NSR | – | – | NSR | COc1cc2ccn(C)c(=O)c2cc1OCc1ccccc1 [IS003] | –
– | – | 123 | 37.4 | NSR | COc1ccc2c(=O)n(C)ccc2c1OCc1ccc(Br)cc1 [IS009] | agonist character / receptor subtype selectivity in words (MT2 receptor): activated MT2 only
– | −6.35 ± 0.06 | – | – | NSR | COc1ccc(C(=O)COc2c(OC)ccc3c(=O)n(C)ccc23)cc1 [IS010] | % Response of 2-IMT (MT2 receptor; Table 1): 53.0%
65.3 | – | 2750 | 145 | – | COc1cc2c(=O)n(C)ccc2cc1OCc1ccccc1 [IS016] | EC50 (MT1 receptor; [1]): 1350 nM
– | – | 107 | 107 | NSR | COc1cc2c(=O)n(C)ccc2cc1OCCCc1ccccc1 [IS017] | –
67.5 | −5.52 | – | – | −5.98 ± 0.04 | COc1ccc(O)c2c(=O)n(C)ccc12 [IS030] | % Response of 2-IMT (MT2 receptor; Table 1): 39.4%
– | – | 525 | 42.1 | NSR | Cn1ccc2ccc(O)c(O)c2c1=O [IS037] | –
– | −5.57 ± 0.75 | – | – | NSR | COc1ccc2c(=O)n(C)ccc2c1OCc1ccc(C(C)(C)C)cc1 [IS532] | % Response of 2-IMT (MT2 receptor; Table 1): 22.3%

— US8389544B2, “Isoquinolone compounds as subtype-selective agonists for melatonin receptors MT1 and MT2” (The Hong Kong University of Science and Technology, priority 2007, dated 2013)
